Measurements from the NIST ThermoML archive (doi:10.1021/acs.jced.9b00668).
± gives the expanded uncertainty stated by the source.

Tests used:
[1] = Liquid; for mass density: 298.15 K, 101.3 kPa, Vibrating tube method; for vapor or sublimation pressure: Ebulliometric method (Recirculating still)
[2] = refractive index (Na D-line) (dimensionless); conditions: 298.15 K; 101.3 kPa; Liquid; Standard Abbe refractometry
[3] = xn = mol fraction of the nth substance listed; conditions: 298.15 K, 101.3 kPa, Liquid, Vibrating tube method

COC(C)=O [methyl ethanoate]
Conditions | mass density [kg/m3] | refractive index
[1] | 927.1 ± 0.2 | –
[2] | – | 1.35875 ± 0.00035

[1]
Conditions | vapor or sublimation pressure [kPa]
329.99 K | 100 ± 3
436.08 K | 1500 ± 3

CCCCCCC [heptane] + CCOC(C)=O
Conditions | mass density [kg/m3]
[3], x2 = 0 | 679.7 ± 0.3

CC(C)CC(C)(C)C [2,2,4-trimethylpentane] + COC(C)=O
Conditions | mass density [kg/m3]
[3], x2 = 0 | 687.8 ± 0.3

CCOC(C)=O [ethyl acetate]
Conditions | mass density [kg/m3] | refractive index
[1] | 894.4 ± 0.2 | –
[2] | – | 1.36981 ± 0.00035

[1]
Conditions | vapor or sublimation pressure [kPa]
350.19 K | 100 ± 3
462.75 K | 1500 ± 3

CCCCCCC [heptane] + COC(C)=O
Conditions | mass density [kg/m3]
[3], x2 = 0 | 679.7 ± 0.3

CC(C)CC(C)(C)C [2,2,4-trimethylpentane] + CCOC(C)=O
[3]
Conditions | mass density [kg/m3]
x2 = 0 | 687.8 ± 0.3
x2 = 0.0627 | 694.4 ± 0.3
x2 = 0.1027 | 699 ± 0.3
x2 = 0.1524 | 704.9 ± 0.3
x2 = 0.2008 | 711.1 ± 0.3
x2 = 0.272 | 721 ± 0.3
x2 = 0.3528 | 733.3 ± 0.3
x2 = 0.386 | 738.7 ± 0.2
x2 = 0.4349 | 747.1 ± 0.2
x2 = 0.4568 | 751 ± 0.2
x2 = 0.5071 | 760.4 ± 0.2
x2 = 0.5362 | 766.1 ± 0.2
x2 = 0.6042 | 780.2 ± 0.2
x2 = 0.7014 | 802.6 ± 0.2
x2 = 0.7603 | 817.7 ± 0.2
x2 = 0.8488 | 842.7 ± 0.2
x2 = 0.8968 | 857.9 ± 0.2
x2 = 0.9273 | 868.1 ± 0.2
x2 = 0.9465 | 874.7 ± 0.2

COC(C)=O [methyl ethanoate] + CCCCCCC
[3]
Conditions | mass density [kg/m3]
x1 = 0.0579 | 685.5 ± 0.3
x1 = 0.0789 | 687.8 ± 0.3
x1 = 0.0926 | 689.7 ± 0.3
x1 = 0.1276 | 694.1 ± 0.3
x1 = 0.1562 | 697.4 ± 0.3
x1 = 0.1662 | 698.8 ± 0.3
x1 = 0.1998 | 703.2 ± 0.3
x1 = 0.2413 | 709.3 ± 0.3
x1 = 0.2652 | 712.7 ± 0.3
x1 = 0.2914 | 716.8 ± 0.3
x1 = 0.3583 | 728.4 ± 0.3
x1 = 0.4171 | 739 ± 0.3
x1 = 0.43 | 741.6 ± 0.3
x1 = 0.4682 | 749.3 ± 0.3
x1 = 0.506 | 757.3 ± 0.3
x1 = 0.5357 | 764 ± 0.3
x1 = 0.584 | 775.6 ± 0.3
x1 = 0.6338 | 788.4 ± 0.3
x1 = 0.715 | 811.7 ± 0.2
x1 = 0.7194 | 813 ± 0.2
x1 = 0.7256 | 814.9 ± 0.2
x1 = 0.7698 | 829 ± 0.2
x1 = 0.7996 | 839.2 ± 0.2
x1 = 0.8104 | 843.3 ± 0.2
x1 = 0.8285 | 850.2 ± 0.2
x1 = 0.8537 | 859.8 ± 0.2
x1 = 0.8558 | 860.5 ± 0.2
x1 = 0.8898 | 874.1 ± 0.2
x1 = 0.901 | 879.1 ± 0.2
x1 = 0.9172 | 885.8 ± 0.2
x1 = 0.9284 | 890.8 ± 0.2
x1 = 0.9598 | 905.6 ± 0.2
x1 = 0.9631 | 907.4 ± 0.2
x1 = 0.9735 | 912.8 ± 0.2
x1 = 1 | 927.1 ± 0.2

CCCCCCC [heptane]
Conditions | mass density [kg/m3] | refractive index
[1] | 679.7 ± 0.3 | –
[2] | – | 1.38527 ± 0.0004

Conditions | vapor or sublimation pressure [kPa]
[1], 498.65 K | 1500 ± 15

CCOC(C)=O [ethyl acetate] + CCCCCCC
[3]
Conditions | mass density [kg/m3]
x1 = 0.0642 | 687.5 ± 0.3
x1 = 0.071 | 688.3 ± 0.3
x1 = 0.125 | 695.2 ± 0.3
x1 = 0.1274 | 695.8 ± 0.3
x1 = 0.1932 | 705.1 ± 0.3
x1 = 0.2136 | 708.2 ± 0.3
x1 = 0.3294 | 726.7 ± 0.3
x1 = 0.3874 | 736.7 ± 0.3
x1 = 0.4593 | 750.2 ± 0.3
x1 = 0.5966 | 778.8 ± 0.2
x1 = 0.6582 | 793.2 ± 0.2
x1 = 0.6841 | 799.3 ± 0.2
x1 = 0.7001 | 803.7 ± 0.2
x1 = 0.7346 | 812.6 ± 0.2
x1 = 0.8029 | 830.8 ± 0.2
x1 = 0.8272 | 837.6 ± 0.2
x1 = 0.8471 | 843.6 ± 0.2
x1 = 0.9069 | 862.1 ± 0.2
x1 = 0.9631 | 880.7 ± 0.2
x1 = 1 | 894.4 ± 0.2

CC(C)CC(C)(C)C [2,2,4-trimethylpentane]
Conditions | mass density [kg/m3] | refractive index
[1] | 687.8 ± 0.3 | –
[2] | – | 1.38905 ± 0.00036

[1]
Conditions | vapor or sublimation pressure [kPa]
371.91 K | 100 ± 3
504.65 K | 1500 ± 3

CCOC(C)=O [ethyl acetate] + CC(C)CC(C)(C)C
Conditions | mass density [kg/m3]
[3], x1 = 1 | 894.4 ± 0.2

COC(C)=O [methyl ethanoate] + CC(C)CC(C)(C)C
[3]
Conditions | mass density [kg/m3]
x1 = 0.0646 | 693.5 ± 0.3
x1 = 0.0822 | 695.3 ± 0.3
x1 = 0.0859 | 695.7 ± 0.3
x1 = 0.0992 | 697 ± 0.3
x1 = 0.1566 | 703.6 ± 0.3
x1 = 0.1941 | 707.9 ± 0.3
x1 = 0.208 | 709.7 ± 0.3
x1 = 0.224 | 711.7 ± 0.3
x1 = 0.2636 | 717.1 ± 0.3
x1 = 0.2688 | 717.7 ± 0.3
x1 = 0.2957 | 721.6 ± 0.3
x1 = 0.3211 | 725.4 ± 0.3
x1 = 0.3319 | 727 ± 0.3
x1 = 0.3956 | 737.4 ± 0.3
x1 = 0.5015 | 757.3 ± 0.2
x1 = 0.578 | 774 ± 0.2
x1 = 0.5792 | 774.3 ± 0.2
x1 = 0.6528 | 792.8 ± 0.2
x1 = 0.6958 | 804.5 ± 0.2
x1 = 0.7268 | 813.9 ± 0.2
x1 = 0.7611 | 824.8 ± 0.2
x1 = 0.7834 | 832.2 ± 0.2
x1 = 0.8161 | 843.6 ± 0.2
x1 = 0.8466 | 855.3 ± 0.2
x1 = 0.848 | 855.8 ± 0.2
x1 = 0.8628 | 861.6 ± 0.2
x1 = 0.8632 | 861.9 ± 0.2
x1 = 0.8889 | 872.5 ± 0.2
x1 = 0.9179 | 885.5 ± 0.2
x1 = 0.9388 | 895.1 ± 0.2
x1 = 0.9406 | 895.7 ± 0.2
x1 = 0.9456 | 898.3 ± 0.2
x1 = 0.9574 | 904.3 ± 0.2
x1 = 1 | 927.1 ± 0.2
